Assay results reported in US8962621B2 (Shanghai Institute of Pharmaceutical Industry, priority 2010, dated 2015).
Structures can show the parent of a compound that is named as a salt. One block for each compound: values may come before it.

What was measured:
DA Transporter (hDAT) = DA Transporter (hDAT) (Homo sapiens, UniProt Q01959); assay: Inhibition of [3H]-DA reuptake in HEK 293 cells stably expressing hDAT; settings: for inhibition at 10 µM: HEK293, read-out: DA Reuptake Inhibition; for DA Reuptake Inhibition: 10 μmol/L final concentration (b487 prints 0.1 mmol/L), HEK 293 hDAT cells, [3H]-DA
Chain of DA Transporter (hDAT) (Q01959 whole entry): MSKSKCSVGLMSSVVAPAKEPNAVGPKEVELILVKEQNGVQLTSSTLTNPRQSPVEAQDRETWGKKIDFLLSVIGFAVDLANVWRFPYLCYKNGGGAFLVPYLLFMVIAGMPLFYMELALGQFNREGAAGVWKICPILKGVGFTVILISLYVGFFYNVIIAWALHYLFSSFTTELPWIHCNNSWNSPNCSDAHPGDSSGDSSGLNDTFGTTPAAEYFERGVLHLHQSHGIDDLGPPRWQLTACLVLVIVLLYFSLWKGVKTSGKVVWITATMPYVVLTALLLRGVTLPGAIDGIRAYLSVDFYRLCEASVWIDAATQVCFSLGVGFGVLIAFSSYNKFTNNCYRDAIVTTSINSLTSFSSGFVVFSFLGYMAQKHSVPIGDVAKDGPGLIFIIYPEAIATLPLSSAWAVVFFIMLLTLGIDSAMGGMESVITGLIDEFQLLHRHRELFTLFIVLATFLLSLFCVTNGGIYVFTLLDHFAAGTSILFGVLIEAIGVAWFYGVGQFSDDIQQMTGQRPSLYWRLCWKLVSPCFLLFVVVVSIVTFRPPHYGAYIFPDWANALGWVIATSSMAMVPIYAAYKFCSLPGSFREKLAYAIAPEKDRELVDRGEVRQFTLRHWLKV

5-HT Transporter (hSERT) = 5-HT Transporter (hSERT) (Homo sapiens, UniProt P31645); assay: Inhibition of [3H]-5-HT reuptake in HEK 293 cells stably expressing hSERT; settings: for inhibition at 10 µM: HEK293, read-out: 5-HT Reuptake Inhibition; for 5-HT Reuptake Inhibition: 10 μmol/L final concentration (b487 prints 0.1 mmol/L), HEK 293 hSERT cells, [3H]-5-HT;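 for all read-outs here: compound preincubated 10 min at 30 °C, then 10 min uptake, filter-bound radioactivity counted by scintillation, inhibition relative to total (blank) minus non-specific (positive control) uptake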
Chain of 5-HT Transporter (hSERT) (P31645 whole entry): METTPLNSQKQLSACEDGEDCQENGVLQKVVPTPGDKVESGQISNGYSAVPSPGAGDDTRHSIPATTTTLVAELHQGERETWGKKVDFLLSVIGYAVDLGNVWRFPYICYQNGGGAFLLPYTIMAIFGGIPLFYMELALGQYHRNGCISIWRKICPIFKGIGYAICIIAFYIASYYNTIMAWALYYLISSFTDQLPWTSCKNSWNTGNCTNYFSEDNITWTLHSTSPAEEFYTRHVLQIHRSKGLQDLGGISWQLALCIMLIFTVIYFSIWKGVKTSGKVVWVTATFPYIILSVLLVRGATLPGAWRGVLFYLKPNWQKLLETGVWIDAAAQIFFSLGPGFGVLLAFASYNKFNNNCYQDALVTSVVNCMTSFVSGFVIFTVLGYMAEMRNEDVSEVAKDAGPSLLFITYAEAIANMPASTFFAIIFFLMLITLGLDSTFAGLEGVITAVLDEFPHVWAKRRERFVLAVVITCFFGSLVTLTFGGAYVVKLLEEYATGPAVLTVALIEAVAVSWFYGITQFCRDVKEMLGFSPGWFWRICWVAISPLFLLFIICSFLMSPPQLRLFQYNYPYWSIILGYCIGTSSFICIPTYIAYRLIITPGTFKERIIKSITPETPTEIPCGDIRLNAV

male ICR mice = assay: Mice tail suspension test; type: in vivo; settings: for IT (sec), immobility time: 20.0 mg/kg single intragastric administration, 1 h before test, 4 min observation, n=12; for Improvement (%): 20.0 mg/kg single oral administration, versus blank control IT; for effect on immobility time in the tail suspension test (in words): 20 mg/kg, efficacy similar to Venlafaxine
Method: Through intragastric administration, 10 mL·kg^−1 of each sample (physiological saline for the blank control group) is administrated. After 1 h of the treatment, the mouse is held with a medical tape at a position around 2 cm from the tip of its tail and hung upside-down in the suspension cage with its head 5 cm away from the bottom of the cage. The observation starts right after the mouse is suspended for 2 min and continues for 4 min. The time during which the mouse is immobile (no struggling or only tiny movements of its body/limbs) in this 4 min is accumulated (IT, immobility time). The percentage of the improvement is calculated according to the equation: Improvement %=[IT (blank control group)−IT (compound treatment group)]/IT (blank control group)×100%

NA Transporter (hNAT) = NA Transporter (hNAT) (Homo sapiens, UniProt P23975); assay: Inhibition of [3H]-NA reuptake in HEK 293 cells stably expressing hNAT; settings: for NA Reuptake Inhibition: 10 μmol/L final concentration (b487 prints 0.1 mmol/L), HEK 293 hNAT cells, [3H]-NA
Chain of NA Transporter (hNAT) (P23975 whole entry): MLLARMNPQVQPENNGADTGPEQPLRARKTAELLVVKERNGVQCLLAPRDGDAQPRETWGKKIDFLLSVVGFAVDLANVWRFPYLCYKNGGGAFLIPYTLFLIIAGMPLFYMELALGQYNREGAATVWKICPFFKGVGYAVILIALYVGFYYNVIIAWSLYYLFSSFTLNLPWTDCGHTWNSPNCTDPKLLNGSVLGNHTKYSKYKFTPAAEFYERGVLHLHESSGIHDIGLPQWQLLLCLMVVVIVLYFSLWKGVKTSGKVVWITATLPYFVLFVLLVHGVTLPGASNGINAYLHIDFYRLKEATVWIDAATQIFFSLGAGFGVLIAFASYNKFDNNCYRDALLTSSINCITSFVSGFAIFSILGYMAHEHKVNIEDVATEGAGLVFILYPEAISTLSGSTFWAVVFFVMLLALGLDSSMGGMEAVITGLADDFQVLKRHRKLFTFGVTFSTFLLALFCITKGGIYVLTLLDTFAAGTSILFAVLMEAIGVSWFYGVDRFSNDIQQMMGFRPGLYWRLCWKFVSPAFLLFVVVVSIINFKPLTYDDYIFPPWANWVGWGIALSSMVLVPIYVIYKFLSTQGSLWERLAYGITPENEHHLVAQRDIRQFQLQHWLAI

male Kunming mice = assay: Mice forced swimming test; type: in vivo; settings: for effect in the forced swimming test (in words): 20 mg/kg; for IT (sec), immobility time: 20.0 mg/kg single intragastric administration, 1 h before test, last 4 min of 6 min, n=12
Method: Through intragastric administration, 10 mL·kg^−1 of each sample (physiological saline for the blank control group) is administrated. The mice are pre-screened for swimming one day before the actual test. The mouse is placed into water (25° C., 10 cm deep) in a glass tank (height 20 cm, diameter 14 cm) and forced to swim for 6 min. Those who stop swimming at around 70-160 s are chosen for the actual test which starts 24 h later. After 1 h of the administration, the forced swimming test is performed by placing the animal into the above-mentioned environment to swim for 6 min. The accumulative immobility time for the last 4 min is recorded. Data is statistically analyzed with t-test.

SMILES: CN(C)CCC(c1ccc(Cl)c(Cl)c1)N1CCNCC1 (centres unmarked) (as salt: hydrochloride) [VI-3, N,N-dimethyl-3-(3,4-dichlorophenyl)-3-(piperazin-1-yl)-propylamine]
melting point: 257.3 to 258.9 °C

SMILES: CN(C)CCC(c1csc2ccccc12)N1CCCC1 (centres unmarked) (as salt: hydrochloride) [VI-13, N,N-dimethyl-3-(benzothiophen-3-yl)-3-(pyrrolidin-1-yl)-propylamine]
melting point: 259.7 to 262.2 °C

SMILES: CN(CCC(c1csc2ccccc12)N1CCCC1)Cc1ccccc1 (centres unmarked) (as salt: hydrochloride) [VI-14, N-methyl-N-benzyl-3-(benzothiophen-3-yl)-3-(pyrrolidin-1-yl)-propylamine]
melting point: 297 to 299.5 °C

SMILES: CNCCC(c1csc2ccccc12)N1CCCC1 (centres unmarked) (as salt: hydrochloride) [VI-15, N-methyl-3-(benzothiophen-3-yl)-3-(pyrrolidin-1-yl)-propylamine]
melting point: 189.3 to 192 °C

SMILES: CN(CCC(c1cc2ccccc2s1)N1CCCC1)Cc1ccccc1 (centres unmarked) (as salt: hydrochloride) [VI-20, N-methyl-N-benzyl-3-(benzothiophen-2-yl)-3-(pyrrolidin-1-yl)-propylamine]
melting point: 287.5 to 289.2 °C

SMILES: COc1ccc2cc(C(CCN(C)C)N3CCCC3)ccc2c1Cl (centres unmarked) (as salt: hydrochloride) [VI-36, N,N-dimethyl-3-(5-chloro-6-methoxynaphthalen-2-yl)-3-(pyrrolidin-1-yl)-propylamine]
melting point: 215.2 to 216.9 °C

SMILES: COc1ccc(C(CCN(C)C)N2CCCC2)cc1 (centres unmarked) (as salt: hydrochloride) [VI-37, N,N-dimethyl-3-(4-methoxyphenyl)-3-(pyrrolidin-1-yl)-propylamine]
melting point: 175.2 to 178.4 °C

SMILES: CN(C)CCCC(c1ccc(Cl)c(Cl)c1)N1CCNCC1 (centres unmarked) (as salt: hydrochloride) [VI-45, N,N-dimethyl-4-(3,4-dichlorophenyl)-4-(piperazin-1-yl)-butylamine]
melting point: 245.6 to 248.2 °C

SMILES: CN(CCCC1(c2ccc3c(c2)OCO3)CCCNC1)Cc1ccccc1 (centres unmarked) (as salt: hydrochloride) [VI-53, N-methyl-N-benzyl-3-(1,2-methylenedioxybenzen-4-yl)-3-piperidyl-propylamine]
melting point: 285.6 to 288.9 °C

SMILES: COc1ccc(C2(CCCN(C)Cc3ccccc3)CCCNC2)cc1OC (centres unmarked) (as salt: hydrochloride) [VI-59, N-methyl-N-benzyl-3-(3,4-dimethoxyphenyl)-3-piperidyl-propylamine]
melting point: 256.6 to 258.9 °C

SMILES: Clc1ccc([C@]23CNC[C@H]2C3)cc1Cl [DOV-21947, reference compound]
inhibition at 10 µM (DA Transporter (hDAT)): 100%
inhibition at 10 µM (5-HT Transporter (hSERT)): 100%

SMILES: CN(C)CCC(c1ccc(Cl)c(Cl)c1)N1CCOCC1 (centres unmarked) [VI-4, N,N-dimethyl-3-(3,4-dichlorophenyl)-3-morpholinyl-propylamine]
IT (sec), immobility time (male ICR mice): 38.65 ± 16.32 s
Improvement (%) (male ICR mice): 61.04%
effect on immobility time in the tail suspension test (in words) (male ICR mice): significant reduction in the immobility time
DA Reuptake Inhibition (DA Transporter (hDAT)): 89.9%
NA Reuptake Inhibition (NA Transporter (hNAT)): 93.6%
inhibition effect towards the reuptake of 5-HT (in words) (5-HT Transporter (hSERT)): relatively strong inhibition effect
5-HT Reuptake Inhibition (5-HT Transporter (hSERT)): 101.9%
effect in the forced swimming test (in words) (male Kunming mice): significant reduction in the immobility time
IT (sec), immobility time (male Kunming mice): 52.8 ± 32.0 s

SMILES: Clc1ccc(C(CCN2CCOCC2)N2CCCC2)cc1Cl (centres unmarked) [VI-6]
IT (sec), immobility time (male ICR mice): 25.68 ± 14.25 s
Improvement (%) (male ICR mice): 74.11%
effect on immobility time in the tail suspension test (in words) (male ICR mice): significant reduction in the immobility time
DA Reuptake Inhibition (DA Transporter (hDAT)): 106.4%
NA Reuptake Inhibition (NA Transporter (hNAT)): 101.4%
5-HT Reuptake Inhibition (5-HT Transporter (hSERT)): 106.3%
effect in the forced swimming test (in words) (male Kunming mice): significant difference from that of the blank control
IT (sec), immobility time (male Kunming mice): 79.3 ± 53.1 s

SMILES: CN(C)CCC(c1csc2ccccc12)N1CCCC1 (centres unmarked) [VI-13, N,N-dimethyl-3-(benzothiophen-3-yl)-3-(pyrrolidin-1-yl)-propylamine]
IT (sec), immobility time (male ICR mice): 38.29 ± 23.76 s
Improvement (%) (male ICR mice): 61.40%
effect on immobility time in the tail suspension test (in words) (male ICR mice): significant reduction in the immobility time
inhibition at 10 µM (DA Transporter (hDAT)): 96.9%
inhibition at 10 µM (NA Transporter (hNAT); HEK293, read-out: NA Reuptake Inhibition): 98.8%
inhibition at 10 µM (5-HT Transporter (hSERT)): 96.6%
effect in the forced swimming test (in words) (male Kunming mice): significant reduction in the immobility time
IT (sec), immobility time (male Kunming mice): 44.9 ± 53.7 s

SMILES: CN(C)CCC(c1cc2ccccc2s1)N1CCOCC1 (centres unmarked) [VI-25, N,N-dimethyl-3-(benzothiophen-2-yl)-3-morpholinyl-propylamine]
DA Reuptake Inhibition (DA Transporter (hDAT)): 39.2%
NA Reuptake Inhibition (NA Transporter (hNAT)): 96.8%
5-HT Reuptake Inhibition (5-HT Transporter (hSERT)): 91.5%

SMILES: COc1ccc2cc(C(CCN(C)C)N3CCOCC3)ccc2c1Cl (centres unmarked) [VI-34, N,N-dimethyl-3-(5-chloro-6-methoxynaphthalen-2-yl)-3-morpholinyl-propylamine]
DA Reuptake Inhibition (DA Transporter (hDAT)): 2.48%
NA Reuptake Inhibition (NA Transporter (hNAT)): 49.5%
5-HT Reuptake Inhibition (5-HT Transporter (hSERT)): 47.3%

SMILES: COc1ccc(C(CCN(C)C)N2CCOCC2)cc1 (centres unmarked) [VI-38, N,N-dimethyl-3-(4-methoxyphenyl)-3-morpholinyl-propylamine]
DA Reuptake Inhibition (DA Transporter (hDAT)): 23.0%
NA Reuptake Inhibition (NA Transporter (hNAT)): 29.3%
5-HT Reuptake Inhibition (5-HT Transporter (hSERT)): 25.9%

SMILES: CN(C)CCCC(c1ccc(Cl)c(Cl)c1)N1CCOCC1 (centres unmarked) [VI-44, N,N-dimethyl-4-(3,4-dichlorophenyl)-4-morpholinyl-butylamine]
DA Reuptake Inhibition (DA Transporter (hDAT)): 67.0%
NA Reuptake Inhibition (NA Transporter (hNAT)): 54.6%
5-HT Reuptake Inhibition (5-HT Transporter (hSERT)): 45.8%

SMILES: CN(C)CCC(c1ccc(F)cc1F)N1CCOCC1 (centres unmarked) [VI-48, N,N-dimethyl-3-(2,4-difluorophenyl)-3-morpholinyl-propylamine]
DA Reuptake Inhibition (DA Transporter (hDAT)): 45.6%
NA Reuptake Inhibition (NA Transporter (hNAT)): 58.0%
5-HT Reuptake Inhibition (5-HT Transporter (hSERT)): 65.0%

SMILES: COc1ccc(C(CCN(C)Cc2ccccc2)N2CCOCC2)cc1OC (centres unmarked) [VI-56, N-methyl-N-benzyl-3-(3,4-dimethoxyphenyl)-3-morpholinyl-propylamine]
DA Reuptake Inhibition (DA Transporter (hDAT)): 59.2%
NA Reuptake Inhibition (NA Transporter (hNAT)): 68.7%
5-HT Reuptake Inhibition (5-HT Transporter (hSERT)): 78.0%

SMILES: CN(C)CCC(c1cccs1)N1CCOCC1 (centres unmarked) [VI-61, N,N-dimethyl-3-(thien-2-yl)-3-morpholinyl-propylamine]
DA Reuptake Inhibition (DA Transporter (hDAT)): 65.6%
NA Reuptake Inhibition (NA Transporter (hNAT)): 75.0%
5-HT Reuptake Inhibition (5-HT Transporter (hSERT)): 78.9%

More lines, now with the values ahead:

melting point: 193.2 to 195 °C
SMILES: CCCN(C)C1(c2csc3ccccc23)CCCNC1 (centres unmarked) (as salt: hydrochloride)

melting point: 189.3 to 192.4 °C
SMILES: CCCN(C)C1(c2ccc3c(c2)OCO3)CCCNC1 (centres unmarked) (as salt: hydrochloride)

melting point: 195.2 to 197.8 °C
SMILES: CCCN(C)C1(c2ccc(OC)c(OC)c2)CCCNC1 (centres unmarked) (as salt: hydrochloride)

melting point: 169.1 to 171.8 °C
SMILES: CN(C)CCCC1(c2ccc(Cl)c(Cl)c2)CCCNC1 (centres unmarked) (as salt: hydrochloride) [VI-7, N,N-dimethyl-3-(3,4-dichlorophenyl)-3-piperidyl-propylamine]

melting point: 312 to 313.5 °C
SMILES: CN(CCCC1(c2csc3ccccc23)CCCNC1)Cc1ccccc1 (centres unmarked) (as salt: hydrochloride) [VI-17, N-methyl-N-benzyl-3-(benzothiophen-3-yl)-3-piperidyl-propylamine]

melting point: 255 to 257.2 °C
SMILES: CN(C)CCC(c1cc2ccccc2s1)N1CCCC1 (centres unmarked) (as salt: hydrochloride) [VI-19, N,N-dimethyl-3-(benzothiophen-2-yl)-3-(pyrrolidin-1-yl)-propylamine]

melting point: 175 to 176.8 °C
SMILES: CNCCC(c1cc2ccccc2s1)N1CCCC1 (centres unmarked) (as salt: hydrochloride) [VI-21, N-methyl-3-(benzothiophen-2-yl)-3-(pyrrolidin-1-yl)-propylamine]

melting point: 298.5 to 300 °C
SMILES: CN(CCCC1(c2cc3ccccc3s2)CCCNC1)Cc1ccccc1 (centres unmarked) (as salt: hydrochloride) [VI-23, N-methyl-N-benzyl-3-(benzothiophen-2-yl)-3-piperidyl-propylamine]

melting point: 185.3 to 187 °C
SMILES: CCCN(C)C1(c2cc3ccccc3s2)CCCNC1 (centres unmarked) (as salt: hydrochloride) [VI-24, N-methyl-3-(benzothiophen-2-yl)-3-piperidyl-propylamine]

melting point: 249.6 to 252.2 °C
SMILES: CN(C)CCCC(c1csc2ccccc12)N1CCNCC1 (centres unmarked) (as salt: hydrochloride) [VI-47, N,N-dimethyl-4-(benzothiophen-3-yl)-4-(piperazin-1-yl)-butylamine]
